{"source": "patent US20230140691A1", "about": "“OPTICALLY CLEAR, IN-SITU FORMING BIODEGRADABLE NANO-CARRIERS FOR OCULAR THERAPY, AND METHODS USING SAME” (Rowan University, priority 2017, published 2023)", "assay": "In vitro drug release from PLGA-PEG-PLGA hydrogel in microfluidic devices at physiological flow rate", "assay_type": "physicochemical", "details": "15 μg HA loaded; for release rate of hyaluronic acid from hydrogel: 35° C.; for amount of HA released: in 10 days", "method": "The final volume of the hydrogel solution with the compound of interest was constrained to 100 μL because of the anatomical space in the lens capsule. Physiological flow rate (2.4 μl/min) was achieved using microfluidic devices. The devices resemble the anatomical dimensions of both the anterior and posterior chamber of the human eye, as well as the physiological dynamics of the aqueous humor flow. All of the release studies were conducted at 35° C. • a. Dexamethasone (Hydrophobic): 100 μL of PLGA-PEG-PLGA hydrogel solution at 25 (w/v) % was mixed with 100 μg of dexamethasone. The collected samples were analyzed via HPLC. • b. […] The collected samples were analyzed via fluoresce spectroscopy at an excitation, filter, and emission wavelengths (nm) of 483, 515 524, respectively • c. Nucleic acid conjugates (Hydrophilic): 62 μL of nucleic acid conjugates in PBS solution (31 μg) were mixed with 38 μL of hydrogel solution at a concentration of 25 (w/v) %. Because the nucleic acid conjugates were already dissolved in PBS, the hydrogel solution was diluted down to 14 (w/v) %. The collected samples were analyzed via fluorescence spectroscopy at an excitation, filter, and emission wavelengths (nm) of 642, 665, and 670, respectively. • d. Hyaluronic acid (Hydrophilic): 30 μL of hyaluronic acid (HA, 800 KDa) stock solution at a concentration of 0.5 mg/mL in PBS (15 ug of HA) was mixed with 56 μL of hydrogel solution at a concentration of 25 (w/v) %. In addition, 14 μL of PBS were added to diluted the hydrogel solution down to 14 (w/v) %. Samples containing PLL were prepared by adding to the already mentioned composition 10 mg of PLL (10 (w/v) % PLL). The collected samples were analyzed via fluorescence spectroscopy at an excitation, filter, and emission wavelengths (nm) of 483, 495, 518, respectively.", "key": {"[1]": {"details": "systems modified with 10 (w/v) % PLL"}}, "data": [{"substance": "Hyaluronic acid", "values": [{"measurement": "release rate of hyaluronic acid from hydrogel", "setting": "control systems, no PLL", "value": "0.087 ± 0.044", "unit": "µg/h"}, {"measurement": "amount of HA released", "setting": "control systems, no PLL", "value": 13, "unit": "µg"}, {"measurement": "release rate of hyaluronic acid from hydrogel", "setting": "[1]", "value": "0.055±0.026"}, {"measurement": "amount of HA released", "setting": "[1]", "value": 11, "unit": "µg"}]}]}
